SMILES strings stand for the structures. Like-named read-outs stand apart in the source and are kept apart here. Non-standard residues stand in square brackets, D forms with d. Residues, ends and D or L forms follow the SMILES beside them. *: point of attachment. Ursodeoxycholyl = C[C@H](CCC(=O)*)[C@H]1CC[C@H]2[C@@H]3[C@@H](O)C[C@@H]4C[C@H](O)CC[C@]4(C)[C@H]3CC[C@]12C; TTDA(Palmitoyl) = CCCCCCCCCCCCCCCC(=O)NCCCOCCOCCOCCCN*; PEG12 = NCCOCCOCCOCCOCCOCCOCCOCCOCCOCCOCCOCCOCCC(=O)O; dDip = N[C@@H](C(=O)O)C(c1ccccc1)c1ccccc1; Dip = N[C@H](C(=O)O)C(c1ccccc1)c1ccccc1; Palmitoyl = CCCCCCCCCCCCCCCC(=O)*; β3hF = N[C@H](CC(=O)O)Cc1ccccc1; NMeD = CN[C@@H](CC(=O)O)C(=O)O; β3hP = O=C(O)C[C@@H]1CCCN1; AEEEA = NCCOCCOCCOCC(=O)O; Dap = NC[C@H](N)C(=O)O

Experiment [1] deals with mouse. The experiment is described as follows: Activity at 20 nmoles/mouse: serum iron 4 hours after injection versus solvent (Tables 3 and 4). It counts as in vivo. Further details: key: Y: “Active” means that at 4 hours after injection serum iron in peptide-injected mice decreased statistically significantly (p < 0.05) compared to solvent-injected mice; Y*: Exhibits detectable and reproducible activity at about 50% lower than the most active compounds in Table 3 and 4. To be noted: Table 3, intraperitoneal.

Experiment [2] relates to C57/Bl6J mice. The experiment is described as follows: Serum iron assay in mice on low-iron diet, 4 hours after peptide. It counts as in vivo, mouse. Further details: key to active in vivo: *active in vivo. The conditions noted are these: for active in vivo: asterisk at the EC50 value of Table 1. As to the method:
The decrease in serum iron after peptide administration is the principal measure of hepcidin activity. Thus, as provided herein, the hepcidin activity of selected peptides of the present invention were assayed in vivo by measuring serum iron in test subjects. Briefly, C57/Bl6J mice were maintained on NIH 31 rodent diet (333 parts per million (ppm) iron; Harlan Teklad, Indianapolis, Ind.). Two weeks before the experiment, the mice were switched to a diet containing about 2-4 ppm iron (Harlan Teklad, Indianapolis, Ind.) in order to suppress endogenous hepcidin. Peptide stocks were diluted to desired concentrations in sterile phosphate buffered saline (PBS) or other diluents as described next. Mice were subjected to the following treatments: (a) Injected intraperitoneally either with 100 μl PBS (control) or with 50 μg peptide in 100 μl PBS; (b) Injected with 100 μl of peptide (or PBS) mixed with 500 μg empty liposomes COATSOME EL series (NOF, Tokyo, Japan) (prepared as per manufacturer's recommendation); (c) Injected with 100 μl peptides (or PBS) solubilized with SL220 solubilization agent (NOF, Tokyo, Japan); (d) Gavaged with 250 μl of peptide (or PBS) in 1× solvent (Cremophor EL (Sigma)/ethanol/PBS; (12.5:12.5:75)). Mice were sacrificed 4 hours later, blood was collected by cardiac puncture, and serum was separated using MICROTAINER tubes (Becton Dickinson, Franklin Lakes, N.J.). Serum iron was determined by using a colorimetric assay (Diagnostic Chemicals, Oxford, Conn.), which was modified for the microplate format so that 10 μl serum was used per measurement. The results were expressed as the percentage of decrease in serum iron when compared with the average value of serum iron levels in PBS-treated mice.

Experiment [3] has as its target T1, ferroportin tagged at the C-terminus with green fluorescent protein (Fpn-GFP) (Mus musculus, UniProt Q9JHI9).
T1 construct: expressed in transfected cells; host or cells: ECR293/Fpn-GFP (stably transfected, ponasterone-inducible)
T1 sequence (Q9JHI9 1-570): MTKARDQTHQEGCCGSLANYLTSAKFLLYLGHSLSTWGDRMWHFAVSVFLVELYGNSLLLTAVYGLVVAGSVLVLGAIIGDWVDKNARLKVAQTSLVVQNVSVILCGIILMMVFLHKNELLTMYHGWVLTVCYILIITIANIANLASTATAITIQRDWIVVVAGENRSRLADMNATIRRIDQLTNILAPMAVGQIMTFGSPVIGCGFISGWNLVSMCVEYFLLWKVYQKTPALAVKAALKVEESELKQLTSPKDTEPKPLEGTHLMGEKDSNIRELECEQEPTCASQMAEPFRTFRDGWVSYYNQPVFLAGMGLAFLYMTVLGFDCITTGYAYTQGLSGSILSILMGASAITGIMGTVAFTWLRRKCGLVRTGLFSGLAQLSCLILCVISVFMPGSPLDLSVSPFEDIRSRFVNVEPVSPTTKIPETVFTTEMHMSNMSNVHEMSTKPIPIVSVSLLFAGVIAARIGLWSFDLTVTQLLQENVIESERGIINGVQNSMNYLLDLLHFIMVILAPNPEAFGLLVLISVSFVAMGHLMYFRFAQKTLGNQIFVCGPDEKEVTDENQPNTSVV
The experiment is described as follows: Flow cytometry of ferroportin-GFP degradation in ECR293/Fpn-GFP cells. The experiment is classed as cell-based. As to the method:
In vitro activity may be measured by the dose-dependent loss of fluorescence of cells engineered to display ferroportin fused to green fluorescent protein as in Nemeth et al. (2006) Blood 107:328-33. Aliquots of cells are incubated for 24 hours with graded concentrations of a reference preparation of Hep25 or a mini-hepcidin. As provided herein, the EC50 values are provided as the concentration of a given compound (e.g. peptide) that elicits 50% of the maximal loss of fluorescence generated by the reference Hep25 preparation.
Mutational studies indicate that C326, the cysteine residue at position 326 of human ferroportin, is the critical residue involved in binding hepcidin. Thus, various N-terminal fragments of Hep25 containing a thiol, i.e. Hep 4-7, Hep3-7, Hep3-8, Hep3-9, Hep1-7, Hep1-8, Hep1-9, and Hep1-10 C7A, were chemically synthesized, refolded and their activities relative to Hep25 were assayed using flow-cytometric quantitation of the ferroportin-GFP degradation, iron efflux estimation based on measurements of cellular ferritin, and radioisotopic iron efflux studies.
The activity of peptides of the present invention was measured by flow cytometry as previously described. See Nemeth et al. (2006) Blood 107:328-333, which is herein incorporated by reference. ECR293/Fpn-GFP, a cell line stably transfected with a ponasterone-inducible ferroportin construct tagged at the C-terminus with green fluorescent protein was used. See Nemeth et al. (2004) Science 306:2090-2093, which is herein incorporated by reference. Briefly, the cells were plated on poly-D-lysine coated plates in the presence of 20 μM FAC, with or without 10 μM ponasterone. After 24 hours, ponasterone was washed off, and cells were treated with peptides for 24 hours. Cells were then trypsinized and resuspended at 1×10^6 cells/ml, and the intensity of green fluorescence was analyzed by flow cytometry. Flow cytometry was performed on FAC SCAN (fluorescence activated cell scanner) Analytic Flow Cytometer (Becton Dickinson, San Jose, Calif.) with […] version 3.3 software (Becton Dickinson). Cells not induced with ponasterone to express Fpn-GFP were used to establish a gate to exclude background fluorescence. Cells induced with ponasterone, but not treated with any peptides, were used as the positive control. Each peptide was tested over the range of concentrations (0, 0.01, 0.03, 0.1, 0.3, 1, 3 and 10 μM). Each peptide treatment was repeated independently 3 to 6 times. For each concentration of peptide, the results were expressed as a fraction of the maximal activity (FHep25) of Hep25 (in the dose range 0.01-10 μM), according to the formula 1−((Fx−FHep25)/(Funtreated−FHep25)), where F was the mean of the gated green fluorescence and x was the peptide.

Setting [4] is: read-out: EC50 (nM) in vitro, Table 3.

For the molecule `CCCCCCCCCCCCCCCC(=O)NCCCOCCOCCOCCCNC(=O)COCCOCCOCCNC(=O)[C@H](Cc1ccccc1)NC(=O)C1(NC(=O)[C@H](CS)NC(=O)C2(NC(=O)[C@@H]3CCCN3C(=O)[C@@H](NC(=O)[C@H](Cc3c[nH]cn3)NC(=O)[C@@H](NC(=O)CNCC(=O)O)[C@@H](C)O)C(c3ccccc3)c3ccccc3)CCCCC2)CCCCC1` [PR60], in experiment [1], the “Active @ 20 nmoles/mouse IP” value is given as “Y*”.

In the case of `CC[C@@H](C)[C@@H](NC(=O)[C@@H](Cc1ccccc1)NC(=O)CCOCCOCCOCCOCCOCCOCCOCCOCCOCCOCCOCCOCCNC(=O)[C@@H](CC(=O)O)NC(=O)CC[C@@H](C)[C@H]1CC[C@H]2[C@@H]3[C@@H](O)C[C@@H]4C[C@H](O)CC[C@]4(C)[C@H]3CC[C@]12C)C(=O)N[C@H](CS)C(=O)N[C@@H](C(=O)N1CCC[C@@H]1C(=O)N[C@H](Cc1ccccc1)C(=O)N[C@H](Cc1c[nH]cn1)C(=O)N[C@@H](C(=O)N[C@H](CC(=O)O)C(N)=O)[C@H](C)O)[C@H](C)CC` [PR24] (Ursodeoxycholyl-[dD][PEG12][dF][dI][dC][dI][dP][dF][dH][dT][dD]-NH2), the active in vivo result in experiment [2] is given as “*”.

For the molecule `CCCCCCCCCCCCCCCC(=O)NC[C@H](NC(=O)CCCCCCCCCCCCCCC)C(=O)NCCOCCOCCOCCOCCOCCOCCOCCOCCOCCOCCOCCOCCC(=O)N[C@H](Cc1ccccc1)C(=O)N[C@@H](C(=O)N[C@H](CS)C(=O)N[C@@H](C(=O)N1CCC[C@@H]1C(=O)N[C@H](Cc1ccccc1)C(=O)N[C@H](Cc1c[nH]cn1)C(=O)N[C@@H](C(=O)N[C@H](CC(=O)O)C(N)=O)[C@H](C)O)[C@H](C)CC)[C@H](C)CC` [PR28] (Palmitoyl-[Dap](Palmitoyl)[PEG12][dF][dI][dC][dI][dP][dF][dH][dT][dD]-NH2), in experiment [2] (20 nmoles i.p. in liposomal solution), the serum iron entry is “lesser ability to decrease serum iron than PR27”.

For the molecule `CC[C@H](C)[C@H](NC(=O)[C@H](CS)NC(=O)[C@@H](NC(=O)[C@@H]1CCCN1C(=O)[C@H](Cc1ccccc1)NC(=O)[C@H](Cc1c[nH]cn1)NC(=O)[C@@H](NC(=O)[C@@H](N)CC(=O)O)[C@@H](C)O)[C@@H](C)CC)C(=O)N[C@@H](Cc1ccccc1)C(N)=O` [Hep9], the serum iron entry in experiment [2] (50 μg per mouse i.p. in PBS, after 4 hours) is “did not result in a serum iron decrease”.

Usually EC50 stands for the midpoint of the concentration-response curve. Regarding `CCCCCCCCCCCCCCCC(=O)NCCOCCOCCOCCOCCOCCOCCOCCOCCOCCOCCOCCOCCC(=O)N[C@H](Cc1ccccc1)C(=O)N[C@@H](C(=O)N[C@H](CS)C(=O)N[C@@H](C(=O)N1CCC[C@@H]1C(=O)N[C@H](Cc1ccccc1)C(=O)N[C@H](Cc1c[nH]cn1)C(=O)N[C@@H](C(=O)N[C@H](CC(=O)O)C(N)=O)[C@H](C)O)[C@H](C)CC)[C@H](C)CC` [PR27], the serum iron result in experiment [2] (20 nmoles i.p. in PBS) is on record as “comparable to that caused by i.p. administration of 20 nmoles Hep25”; in experiment [2] (200 nmoles i.p. in PBS) it was “even greater decrease”; in experiment [2] (200 nmoles oral by gavage in Cremophor EL solution) it was “caused a decrease in serum iron”. In experiment [2], the active in vivo entry is “*”. In addition, the EC50 in experiment [3] (Table 1, 24 h peptide treatment, 50% of maximal loss of fluorescence by Hep25, read-out: EC50) is 20 nM.

As for `CCCCCCCCCCCCCCCC(=O)NCCCOCCOCCOCCCNC(=O)COCCOCCOCCNC(=O)C[C@H](Cc1ccccc1)NC(=O)[C@H](CCCNC(=N)N)NC(=O)[C@H](CS)NC(=O)[C@H](CCCNC(=N)N)NC(=O)C[C@@H]1CCCN1C(=O)[C@@H](NC(=O)[C@H](Cc1c[nH]cn1)NC(=O)[C@@H](NC(=O)[C@H](CC(=O)O)NC)[C@@H](C)O)C(c1ccccc1)c1ccccc1` [PR57] (H-[NMeD]TH[Dip][β3hP]RCR[β3hF][AEEEA]-{TTDA(Palmitoyl)}; N-terminus and C-terminus assumed), the “Active @ 20 nmoles/mouse IP” value in experiment [1] is “Y”.

In the case of `CCCCCCCCCCCCCCCC(=O)NCCOCCOCCOCCOCCOCCOCCOCCOCCOCCOCCOCCOCCC(=O)N[C@H](Cc1ccccc1)C(=O)N[C@@H](C(=O)N[C@H](CS)C(=O)N[C@@H](C(=O)N1CCC[C@@H]1C(=O)N[C@@H](C(=O)N[C@H](Cc1c[nH]cn1)C(=O)N[C@@H](C(=O)N[C@H](CC(=O)O)C(N)=O)[C@H](C)O)C(c1ccccc1)c1ccccc1)[C@H](C)CC)[C@H](C)CC` [PR47, R4-F-I-C-I-P-Dpa-H-T-D] ({Palmitoyl-PEG12}-[dF][dI][dC][dI][dP][dDip][dH][dT][dD]-NH2), in experiment [3] (setting [4]), the concentration for a half-maximal effect (EC50) was 50 nM.

In the case of `CCCCCCCCCCCCCCCC(=O)NCCOCCOCCOCCOCCOCCOCCOCCOCCOCCOCCOCCOCCC(=O)N[C@H](Cc1ccccc1)C(=O)N[C@H](CC(C)C)C(=O)N[C@H](CS)C(=O)N[C@H](CC(C)C)C(=O)N1CCC[C@@H]1C(=O)N[C@@H](C(=O)N[C@H](Cc1c[nH]cn1)C(=O)N[C@@H](C(=O)N[C@H](CC(=O)O)C(N)=O)[C@H](C)O)C(c1ccccc1)c1ccccc1` [PR52, R4-F-L-C-L-P-Dpa-H-T-D] ({Palmitoyl-PEG12}-[dF][dL][dC][dL][dP][dDip][dH][dT][dD]-NH2), the EC50 in experiment [3] (setting [4]) is below 10 nM.

Source of the values: patent publication US9896481B2, “Modified mini-hepcidin peptides and methods of using thereof” (priority 2011, dated 2018).
